Results on three compounds are retold here after paper PMC7913148, “Anti-Cholinesterase Combination Drug Therapy as a Potential Treatment for Alzheimer’s Disease” (Brain Sciences, 2021).

Broadly, the IC50 is the concentration that gives 50% inhibition.

For series [1] the following is noted: compared to tacrine or berberine; cited from earlier work.
A short description of series [2]: MTT cytotoxicity assay. The conditions noted are these: human, SH-SY5Y neuroblastoma cells; read-out: Cell Cytotoxicity Log IC50 (converted). In kind it is cell-based, human. The method, then: (§1) A MTT assay was used to assess the cytotoxicity of either the individual drugs or dual-drug combinations using the SH-SY5Y neuroblastoma cell line. SH-SY5Y cells were seeded in 96-well plates (passage #15) at a cell density of 3 × 10^4 cells/well in DMEM containing 10% FBS. […] Plates were incubated for 4 h at 37 °C, before removal of the media and replacement with 1:1 (v/v) isopropanol:DMSO. […] Cell viability of cells treated with drugs was quantified by comparison to untreated control cells, set at 100% viability.
(§2) Values generated for IC50 and for the dual-drug CI were determined using CompuSyn software. […] For cell viability assays, a one-way ANOVA was performed to determine significant changes after treatments compared to control cell viability, set at 100%.

The subject of series [3] is SH-SY5Y neuroblastoma cells. In words: MTT cytotoxicity assay. It counts as cell-based, human. The conditions noted are these: SH-SY5Y, MTT, 48 h; significant change from control. The method, then: as §1, §2
On the technique in general: Tetrazolium dyes change colour on reduction, which living cells bring about.

In series [4] the target is T1, Torpedo californica acetylcholinesterase (tcAChE) (Tetronarce californica, UniProt P04058).
T1 construct: purchased Sigma-Aldrich (Poole, UK)
As to the kind of experiment: biochemical. The conditions noted are these: individual drug; Torpedo californica AChE (tc); read-out: Acetycholinesterase Inhibition (IC50).
Experimental: A microtiter plate version of the Ellman’s assay was used to determine the activity of human and Torpedo californica acetylcholinesterase enzymes [27]. Assays were undertaken in the presence of either individual drugs or two-drug combinations. Each assay data point within a 96-well plate contained 40 µL of 0.01 M DTNB, 46 µL of 0.1 M (pH 8.0) phosphate buffer, 2 µL of 0.075 M ATCI substrate, and 10 µL of drug or dual-drug combination. […] Enzymatic cleavage of the ATCI substrate was initiated by addition of 2 µL of 0.5 U/mL AChE enzyme. […] Under these assay conditions, a final color change was reached (results not included) such that an end-point assay measurement was taken [29].
These scoping experiments enabled us to quantify an approximate IC50 for subsequent dose-response experiments. […] These concentrations were also used for dual-drug combination experiments. Experiments undertaken in the absence of inhibitor were designated as 100% enzymatic activity. Assays were performed in duplicates from which a mean was calculated.
Percentage inhibition of AChE from in vitro assays in response to application of individual or dual-drug ChEIs were calculated using CompuSyn software (http://www.combosyn.com/index.html). […]

Counter-ions that a name gives are not always drawn. Where only a bound is given, the exact number is not on record here.

T1 sequence (P04058 22-586): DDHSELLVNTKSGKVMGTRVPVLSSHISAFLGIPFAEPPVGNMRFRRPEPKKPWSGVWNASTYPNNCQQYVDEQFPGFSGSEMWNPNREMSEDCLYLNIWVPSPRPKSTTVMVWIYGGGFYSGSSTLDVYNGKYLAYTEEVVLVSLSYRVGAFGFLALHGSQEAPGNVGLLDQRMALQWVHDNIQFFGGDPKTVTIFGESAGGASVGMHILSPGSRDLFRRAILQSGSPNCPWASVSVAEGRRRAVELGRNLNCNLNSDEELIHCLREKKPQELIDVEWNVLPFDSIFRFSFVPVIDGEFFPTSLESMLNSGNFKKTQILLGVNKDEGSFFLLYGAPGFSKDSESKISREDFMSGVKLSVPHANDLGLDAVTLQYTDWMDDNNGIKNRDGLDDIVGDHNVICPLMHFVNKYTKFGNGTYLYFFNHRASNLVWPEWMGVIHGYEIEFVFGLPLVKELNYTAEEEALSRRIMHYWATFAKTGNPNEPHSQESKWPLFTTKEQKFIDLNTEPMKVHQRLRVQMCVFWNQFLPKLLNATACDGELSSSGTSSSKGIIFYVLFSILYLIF

Turning to `COc1ccc2c3c1O[C@H]1C[C@@H](O)C=C[C@@]31CCN(C)C2` [Gal, galantamine hydrobromide], the oral bioavailability result in series [1] is recorded as “relatively high”. The IC50 at 48 h in series [2] is 12600 µg/mL. In addition, the “concentration needed to reduce cell viability (induce toxicity)” value in series [3] was not below 100 µM.
In the case of `COc1ccc2cc3[n+](cc2c1OC)CCc1cc2c(cc1-3)OCO2` [Ber, berberine hydrochloride], the IC50 in series [4] was 3.23 µM. The IC50 at 48 h in series [2] is 955 µg/mL. Also, the “concentration needed to reduce cell viability (induce toxicity)” value in series [3] was not below 1 µM.
Take `Nc1c2c(nc3ccccc13)CCCC2` [Tac, tacrine hydrochloride]: in series [2], the 50% inhibitory concentration (IC50) at 48 h was 339 µg/mL. Further, the “concentration needed to reduce cell viability (induce toxicity)” value in series [3] is recorded as “at least 10 µM”.
